Values of other authors, collected in US20110177038A1, “Inhibition of Tumor Growth via Peroxiredoxin 3” (THE JOHNS HOPKINS UNIVERSITY, priority 2002, published 2011).

Tested on: MCF7/ADR cells
Settings: free radical scavenger

For CC(=O)C(=O)[O-].[Na+] [sodium pyruvate], the “Inhibition of apoptosis after glucose withdrawal” value is given as “sufficient to inhibit apoptosis”.
